From patent US7973021B2, “Immunomodulating agent in gut” (Kabushiki Kaisha Hayashibara Seibutsu Kagaku Kenkyujo, priority 2005, dated 2011)

Tests used:
Peyer's patch cells [1] = test: Effects of saccharides on IFN-γ and IL-4 production of Peyer's patch cells in vitro (ELISA); type: cell-based, mice; details: saccharide 0.1 mg/ml; for Relative amount of IFN-γ / Relative amount of IL-4: 72 hours, relative to control; for IFN-γ production by stimulation of concanavalin A (in words): in vitro
Method: To investigate direct effects of various saccharides on Peyer's patch cells, the amounts of IFN-γ and IL-4 produced in Peyer's patch cells taken from mice by adding various kinds of saccharide in an in vitro experiment. After six-week-old female BALB/c mice were preliminarily grown for a week with a standard growth purified diet (AIN-93G), their Peyer's patch cells were collected according to the method of Experiment 3. The cell suspension at a concentration of 1×10^6 cells/ml was prepared with RPMI1640 medium containing 10% FCS and 10 mM HEPES and seeded in 24-well microplates by 1 ml/well. After the test saccharides (the cyclic tetrasaccharide, nigerose or isomaltose) were added in an amount of 0.1 mg/ml and lipopolysaccharide (LPS) or concanavalin A (ConA) of 2 μg/ml, they were cultured at 37° C. for 72 hours in an atmosphere of 5% carbon dioxide. The amounts of IFN-γin the supernatants were measured by the ELISA method using anti-mouse- IFN-γ antibodies (MURINE IFN-γELISA DEVELOPMENT KIT, produced by PeproTech, Inc.), and the amounts of IL-4 were measured by the ELISA method using anti-mouse-IL-4 antibodies (Mouse IL-4 ELISA DEVELOPMENT KIT, produced by Genzyme-Techne). As a control, the amounts of IFN-γ and IL-4 produced in Peyer's patch cells cultured with the medium without adding the test saccharides by the same way described above. The values in Table 5 were shown as the relative amounts (%) to control.

female BALB/c mice [2] = test: Amounts of organic acids in cecal contents of mice ingesting the saccharides (ion chromatography); type: in vivo
Method: To investigate the effects of the various saccharides on the enteric environment of mice, the contents of organic acids in the cecal contents were measured. After the cecal contents taken from the mice administered the purified diet containing the test saccharides or the control purified diet in Experiment 2 were suspended in an adequate amount of purified water, their supernatants collected by centrifugation were filtered with membrane (pore size of 0.45 μm). The filtrates were subjected to an ion chromatoanalyzer IC500P (produced by Yokogawa Electric Corporation) loaded with precolumn PCS5-052 and separation column SCS5-252, and eluted with 2 mM sulfuric acid (1.0 ml/min) to analyze the amounts of organic acids. The values expressed in percent in Table 4 mean the relative amounts of each organic acid in the cecal contents to those of the control mice.

Peyer's patch cells [3] = test: IgA, IL-6 and TGF-β produced by Peyer's patch cells taken from mice administered the saccharides (ConA culture, ELISA); type: in vivo
Method: To investigate the immnomodulating effect of the various saccharides, the contents of IgA, IL-6 and TGF-βproduced by the Peyer's patch cells taken from the mice administered the saccharides. After the Peyer's patches taken from the mice administered with the purified diet containing the test saccharides or the control purified diet in Experiment 2 were cut by scissors, they were treated in 0.2 w/w % collagenase solution at 37° C. for 30 minutes. They were filtered through a cell strainer and the filtrate containing the cells were centrifuged to give the cell precipitates. They were suspended in 45 w/w % PARCOR (commercialized by Amersham, PLC), the cell suspensions were layered on 75 w/w % PARCOR and centrifuged for 10 minutes at 1,000 g. Cells floating at the interface between 45 w/w % PARCOR and 75 w/w % PARCOR were collected and suspended in RPM1164 medium containing 10% FCS and 10 mM HEPES to give the cell suspensions at a concentration of 1×10^6 cells/ml. They were seeded in 24-well microplates by 1 ml/well, added with 2 μg/m1 of concanavalin A, and cultured at 37° C. for 48 hours in atmosphere of 5% carbon dioxide. The culture supernatant was collected from each well and their IgA contents, TGF-βcontents or IL-6 contents were measured by ELISA method using anti-mouse-IgA antibody, anti-mouse-IL-6 antibody and anti-mouse-TGF-μ1 antibody, then the averages were calculated from the data of five mice. The values in Table 3 means relative amounts (%) to IgA, IL-6 or TGF-β amount produced in Peyer's patch cells taken from the control mice.

female BALB/c mice [4] = test: Analysis of cecal contents (pH, weight, IgA, IgG) of mice fed saccharide diets for 4 weeks; type: in vivo
Method: To investigate the immunomodulating effect of the various saccharides, IgA content and IgG content in the cecal contents of the mice administered saccharides were measured. After the mice fed on the purified diet containing the test saccharide or the control purified diet (AIN-93G) for 4 weeks in Experiment 1 were killed, their cecums were surgically removed. After the pH and weight of the cecum contents were measured, IgA content and IgG content in the cecal contents were measured. IgA content was measured by ELISA method using anti-IgA antibodies and IgG content was measured by ELISA method using anti-IgG antibodies (MOUSE IgG ELISA QUANTITATION KIT produced by Bethyl Laboratories, Inc) and the amounts of the antibodies per gram of the cecal contents were obtained.

female BALB/c mice [5] = test: IgA content in feces of mice fed saccharide-supplemented purified diet (ELISA); type: in vivo; details: for IgA content in feces: average of five mice
Method: To investigate immunomodulating effects of various saccharides, IgA contents in feces of mice administered saccharides were measured. After six-week-old female BALB/c mice were preliminarily grown for a week with AIN-93G, which is a standard growth purified diet for nutritional study using mice or rats introduced by American Institute of Nutrition in 1993, they were separated in groups of five mice each, and unlimitedly administered the test diets, which is made by supplementing 5 w/w % of the cyclic tetrasaccharide (produced in Example 2), 5 w/w % of nigerooligosaccharide (12.5 w/w % of “NISSHOKU TASTE OLIGO SYRUP”, containing 40% or more of nigerooligosaccharide on a dry solid basis, commercialized by Nihon Shokuhin Kako Co., Ltd.), or 5 w/w % of isomaltooligosaccharide (“ISOMALT 90” commercialized by Hayashibara Shoji, Inc.) to the same formula diet described above except the amount of corn starch was reduced by the relevant weight of the added test saccharide. As control, one group was administered with the standard growth purified diet (AIN-93G) without the test saccharides described above. After 1, 2, 3 and 4 weeks from the initial administration of the test or control diets, fresh feces were taken from each mouse and IgA content was measured by the ELISA method using anti-IgA antibody (MOUSE IgA ELISA QUANTITATION KIT produced by Bethyl Laboratories, Inc). The values expressed in percent in Table 1 mean the relative amounts with respect to control in each week.

[6] = cecal contents, 4 weeks on 5 w/w % saccharide diet
[7] = cells from mice administered the saccharide
[8] = relative to Peyer's patch cells of control mice, 2 μg/ml concanavalin A, 48 hours, average of five mice
[9] = after 4 weeks on 5 w/w % saccharide diet
[10] = after 4 weeks on 5 w/w % saccharide diet, per gram of cecal contents

Compound: OC[C@H]1O[C@@H]2OC[C@H]3O[C@H](O[C@@H]4[C@@H](O)[C@@H](OC[C@H]5O[C@H](O[C@H]([C@H]2O)[C@@H]1O)[C@H](O)[C@@H](O)[C@@H]5O)O[C@H](CO)[C@H]4O)[C@H](O)[C@@H](O)[C@@H]3O [Cyclic tetrasaccharide, cyclo{>6)-α-D-glucopyranosyl-(1>3)-α-D -glucopyranosyl-(1>6)-α-D-glucopyranosyl-(1>3)-α-D -glucopyranosyl-(1>}]
- Relative amount of IFN-γ (Peyer's patch cells [1]; ConA 2 μg/ml): 269%
- Relative amount of IL-4 (Peyer's patch cells [1]; ConA 2 μg/ml): 96%
- Relative amount of IFN-γ (Peyer's patch cells [1]; LPS 2 μg/ml): 103%
- Relative amount of IL-4 (Peyer's patch cells [1]; LPS 2 μg/ml): 101%
- IFN-γ production by stimulation of concanavalin A (in words) (Peyer's patch cells [1]): accelerated
- Acetic acid, relative amount to control mice (female BALB/c mice [2]; cecal contents): (94%)
- Formic acid, relative amount to control mice (female BALB/c mice [2]; cecal contents): (258%)
- Isobutyric acid, relative amount to control mice (female BALB/c mice [2]; cecal contents): (70%)
- Isovaleric acid, relative amount to control mice (female BALB/c mice [2]; cecal contents): (73%)
- Lactic acid, relative amount to control mice (female BALB/c mice [2]; cecal contents): (1000%)
- Malic acid, relative amount to control mice (female BALB/c mice [2]; cecal contents): (179%)
- Propionic acid, relative amount to control mice (female BALB/c mice [2]; cecal contents): (100%)
- Succinic acid, relative amount to control mice (female BALB/c mice [2]; cecal contents): (267%)
- Total organic acids, relative amount to control mice (female BALB/c mice [2]; cecal contents): (109%)
- n-Butyric acid, relative amount to control mice (female BALB/c mice [2]; cecal contents): (206%)
- n-Valeric acid, relative amount to control mice (female BALB/c mice [2]; cecal contents): (73%)
- Amount of organic acid: Acetic acid (female BALB/c mice [2]; [6]): 63 µmol/g
- Amount of organic acid: Formic acid (female BALB/c mice [2]; [6]): 0.82 µmol/g
- Amount of organic acid: Isobutyric acid (female BALB/c mice [2]; [6]): 1.9 µmol/g
- Amount of organic acid: Isovaleric acid (female BALB/c mice [2]; [6]): 2.4 µmol/g
- Amount of organic acid: Lactic acid (female BALB/c mice [2]; [6]): 4.2 µmol/g
- Amount of organic acid: Malic acid (female BALB/c mice [2]; [6]): 1.5 µmol/g
- Amount of organic acid: Propionic acid (female BALB/c mice [2]; [6]): 12 µmol/g
- Amount of organic acid: Succinic acid (female BALB/c mice [2]; [6]): 5.6 µmol/g
- Amount of organic acid: Total organic acids (female BALB/c mice [2]; [6]): 106 µmol/g
- Amount of organic acid: n-Butyric acid (female BALB/c mice [2]; [6]): 14 µmol/g
- Amount of organic acid: n-Valeric acid (female BALB/c mice [2]; [6]): 0.87 µmol/g
- lactic acid content in cecal contents (in words) (female BALB/c mice [2]; mouse, in vivo): increased
- IgA secretion in Peyer's patch cells (in words) (Peyer's patch cells [3]; [7]): increased
- production of IL-6 in Peyer's patch cells (in words) (Peyer's patch cells [3]; [7]): increased
- production of TGF-β in Peyer's patch cells (in words) (Peyer's patch cells [3]; [7]): increased
- Relative IL-6 content (Peyer's patch cells [3]; [8]): 326%
- Relative IgA content (Peyer's patch cells [3]; [8]): 209%
- Relative TGF-β content (Peyer's patch cells [3]; [8]): 142%
- IgA contents in cecal contents (in words) (female BALB/c mice [4]; 4 weeks on saccharide diet): highest increase
- Weight of cecal contents (female BALB/c mice [4]; [9]): 169 mg
- pH of cecal contents (female BALB/c mice [4]; [9]): 7.16
- IgA content in cecal contents (female BALB/c mice [4]; [10]): 4.4 mg/g
- IgG content in cecal contents (female BALB/c mice [4]; [10]): 85 mg/g
- IgA content in feces (female BALB/c mice [5]; First week (age in 8 weeks), 5 w/w % saccharide in AIN-93G diet): 5.61 mg/g
- IgA content in feces, relative amount with respect to control (female BALB/c mice [5]; First week, 5 w/w % saccharide in diet): 106%
- IgA content in feces (female BALB/c mice [5]; Fourth week (age in 11 weeks), 5 w/w % saccharide in diet): 7.09 mg/g
- IgA content in feces, relative amount with respect to control (female BALB/c mice [5]; Fourth week, 5 w/w % saccharide in diet): 328%
- IgA content in feces (female BALB/c mice [5]; Second week (age in 9 weeks), 5 w/w % saccharide in diet): 8.47 mg/g
- IgA content in feces, relative amount with respect to control (female BALB/c mice [5]; Second week, 5 w/w % saccharide in diet): 214%
- IgA content in feces (female BALB/c mice [5]; Third week (age in 10 weeks), 5 w/w % saccharide in diet): 7.57 mg/g
- IgA content in feces, relative amount with respect to control (female BALB/c mice [5]; Third week, 5 w/w % saccharide in diet): 346%
- IgA contents in feces of the mice (in words) (female BALB/c mice [5]; added in the purified diet): increased

Compound: OC[C@H]1O[C@H](O[C@H]2[C@H](O)[C@@H](CO)OC(O)[C@@H]2O)[C@H](O)[C@@H](O)[C@@H]1O (stereo partly shown) [Nigerose, nigerose]
- Relative amount of IFN-γ (Peyer's patch cells [1]; ConA 2 μg/ml): 63%
- Relative amount of IL-4 (Peyer's patch cells [1]; ConA 2 μg/ml): 100%
- Relative amount of IFN-γ (Peyer's patch cells [1]; LPS 2 μg/ml): 104%
- Relative amount of IL-4 (Peyer's patch cells [1]; LPS 2 μg/ml): 99%
- IFN-γ production by stimulation of concanavalin A (in words) (Peyer's patch cells [1]): suppressed

Compound: OC[C@H]1O[C@H](OC[C@H]2OC(O)[C@H](O)[C@@H](O)[C@@H]2O)[C@H](O)[C@@H](O)[C@@H]1O (stereo partly shown) [Isomaltose, isomaltose]
- Relative amount of IFN-γ (Peyer's patch cells [1]; ConA 2 μg/ml): 53%
- Relative amount of IL-4 (Peyer's patch cells [1]; ConA 2 μg/ml): 100%
- Relative amount of IFN-γ (Peyer's patch cells [1]; LPS 2 μg/ml): 100%
- Relative amount of IL-4 (Peyer's patch cells [1]; LPS 2 μg/ml): 97%
- IFN-γ production by stimulation of concanavalin A (in words) (Peyer's patch cells [1]): suppressed
